Assay results reported in US8293803B2, “Retinoid compounds and their use” (Reinnervate Limited, priority 2006, dated 2012).
Blank lines part the entries; values can stand above or below the compound they belong to.

How the values were obtained:
[1] = tested on: stem cells; test: Modulation of cell differentiation (summary statement); assay type: cell-based; conditions: conditions not given
Protocol: (§1) The application of this technology to systems both with and without a methyl group (e.g. in 6a versus 6b), is important because it allows control of relative rotational orientation of the aryl and vinyl groups which has important implications for the control of conformation as a design principle for developing receptor-selective retinoid analogues.
(§2) The biological activity of compounds 6, 10, 11, 12 and 13 were determined by exposing these molecules at various concentrations to different mammalian stem cell systems, namely (1) human pluripotent stem cells; and (2) rat adult neuroprogenitor cells.

[2] = Stability (summary statement); assay type: physicochemical; conditions: conditions not given
Excerpt: as §1

[3] = tested on: TERA2.cl.SP12 cells; test: Proliferation and cytotoxicity in TERA2.cl.SP12 cultures; assay type: cell-based, human
[4] = Stability at room temperature for 1 week (HNMR); assay type: physicochemical
Protocol: (§3) In order to test the sensitivity of the natural retinoids, 10 mM samples in either DMSO or deuterochloroform were exposed to either 37° C., laboratory light (approximately 500 lux), white light (approximately 1250 lux) or UV light. Upon isomerisation HNMR spectra of samples were taken and compared to HNMR spectra of pure samples. The % peak intensities from the HNMR spectra were used to quantify levels of the different retinoic acids and any other compounds that may be present.
Samples of ATRA and 13CRA, were left at room temperature for 1 week. The degraded solution of 13CRA contained around 78% 13CRA. […] All of the above experiments highlight retinoic acids inherent instability, not only in light, but also at 37° C. and even at room temperature.

[5] = Temperature sensitivity of retinoic acids at 37 °C (HNMR); assay type: physicochemical; conditions: 37° C. water bath, HNMR peak intensities
Protocol: as §3
Temperature sensitivity was tested by placing solutions of retinoic acids in a 37° C. water bath for varying time lengths. After 1 hour at 37° C. approximate levels of the initial retinoic acid were 85% for a 13CRA sample and 100% for an ATRA sample. This decreased to 73% for a 13CRA sample and 86% for an ATRA sample after 24 hours.

[6] = Photoisomerisation under UV light (HNMR); assay type: physicochemical; conditions: over 12 hours
Protocol: as §3
(§4) The sensitivity of retinoic acids to light was tested by placing samples of ATRA, 9CRA and 13CRA in one of three lighting conditions for varying lengths of time. Samples were exposed to either normal laboratory light conditions, white light or UV light. HNMR spectra were then compared to those of pure samples.
FIGS. 4 and 5 show the relative ratios of the natural retinoic acids found in samples of ATRA and 13CRA isomerised in UV light for 1 hour and 12 hours.
Samples of synthetic retinoids 12(ii), 12(i) and 13 were exposed to 1 hour of laboratory light, 1 hour of white light and 1 hour of UV light. HNMR spectra from samples exposed to lab light and white light were identical to those of pure compounds. […] UV light is emitted at a frequency likely to excite the conjugated double bond region of these synthetic retinoids, resulting in the slight degradation observed. […]

[7] = Stability in D6-DMSO, 3 days dark under air versus fluorescent light (1H NMR); assay type: physicochemical
Excerpt: FIG. 6 ^1H NMR (500 MHz) spectrum (d 5.40-7.80) of ATRA in D6-DMSO in a glass NMR tube after 3 days in the dark under air (top), versus 3 days exposure to fluorescent light (bottom).
FIG. 7 ^1H NMR (500 MHz) spectrum (d 7.20-8.10) of EC23 (10a(i) (R′═H)) in D6-DMSO in a glass NMR tube after 3 days in the dark under air (top), versus 3 days exposure to fluorescent light (bottom).
In order to study the relative stability of certain synthetic retinoids versus the natural systems, solutions of each were exposed to different environmental conditions and then studied by NMR.

[8] = tested on: human pluripotent stem cells; test: Differentiation of human pluripotent stem cells, morphology and immunocytochemistry / immunofluorescent microscopy; assay type: cell-based; conditions: for formation of neurons: confirmed by immunocytochemistry
Protocol: as §2
Tissue development by human pluripotent stem cells closely resembles that which occurs during normal embryogenesis in utero and this cell system is a proven and accepted model of cell differentiation (Przyborski et al, Stem Cells Dev., 2004, 13:400-408). […]

[9] = tested on: neuroprogenitor cells derived from the adult rat hippocampus; test: Differentiation of adult neuroprogenitor cells; assay type: cell-based; conditions: adult rat hippocampal neuroprogenitor cells; β-tubulin-III staining
Protocol: as §2
The biological activity of the synthetic retinoid EC23 (10a(i)) was also evaluated by exposing it to neuroprogenitor cells derived from the adult rat hippocampus. […] Immunocytochemical staining for the marker β-tubulin-III was used to confirm neuronal identity (data not shown).

[10] = tested on: human pluripotent TERA2.cl.SP12 embryonal carcinoma stem cells; test: Flow cytometry of cell surface antigen expression on human pluripotent stem cells; assay type: cell-based; conditions: 14 day test period; comparable to non-isomerised ATRA
Protocol: FIG. 8 Flow cytometric analysis of cell surface antigen expression for markers of stem cells (ssea-3, tra-1-60) and differentiated derivatives (vinis-53, a2b5) when cultures of human pluripotent embryonal carcinoma stem cells (TERA2.SP12) exposed to either 10 μM ATRA or 10 μM EC23 (10a(i) (R′═H)).
FIG. 9 Flow cytometric analysis of cell surface antigen expression on human pluripotent TERA2.cl.SP12 embryonal carcinoma stem cells (undiff) and their differentiated derivatives after 7 days exposure to either ATRA; 3Me-CEBX (12); 3Me-EC19 (10b(ii) R′═H); 3Me-EC23 (10b(i) (R′═H)); 4Me-TTN (6b(i)(R′═H)); all used at 1 μM. DMSO was used as a vehicle control.
as §2
Tissue development by human pluripotent stem cells closely resembles that which occurs during normal embryogenesis in utero and this cell system is a proven and accepted model of cell differentiation (Przyborski et al, Stem Cells Dev., 2004, 13:400-408).
The expression of cell surface antigens that are known to change as these stem cells commit to differentiate, was assessed by flow cytometry.
Flow cytometry was also used to assay for the effect(s) of compounds 6, 10 and (FIGS. 8 and 9).

[11] = ATRA in ethanol, white light, 30 minutes; cited from earlier work
[12] = Photoisomerisation under white light (HNMR); assay type: physicochemical
Protocol: as §3, §4
Samples of synthetic retinoids 12(ii), 12(i) and 13 were exposed to 1 hour of laboratory light, 1 hour of white light and 1 hour of UV light. HNMR spectra from samples exposed to lab light and white light were identical to those of pure compounds. […] UV light is emitted at a frequency likely to excite the conjugated double bond region of these synthetic retinoids, resulting in the slight degradation observed. 12(ii) and 12(i) were stable under laboratory light and white light. 13 was stable when exposed to all forms of light.

[13] = Photoisomerisation under laboratory light (HNMR); assay type: physicochemical; conditions: laboratory light (approx. 500 lux), 1 hour and 24 hours
Protocol: as §3, §4
The relative ratios of the natural retinoic acid isomers found in samples of ATRA and 13CRA isomerised in lab light for 1 hour and 24 hours can be seen in FIGS. 1 and 2. The new peaks in HNMR spectra increased in size, and so levels of isomerisation products increased over 24 hours but not to any great extent.
Samples of synthetic retinoids 12(ii), 12(i) and 13 were exposed to 1 hour of laboratory light, 1 hour of white light and 1 hour of UV light. HNMR spectra from samples exposed to lab light and white light were identical to those of pure compounds. […]

[14] = 1 hour, 10 mM in DMSO or deuterochloroform
[15] = 10 μM, 21 days, immunofluorescent microscopy
[16] = 3 days exposure to fluorescent light, DMSO, NMR

SMILES: COC(=O)c1cccc(C=C(C)c2ccc3c(c2)C(C)(C)CCC3(C)C)c1 [Compound 6aii, 3-[2-(5,5,8,8-Tetramethyl-5,6,7,8-tetrahydronaphthalen-2-yl)-propenyl]-benzoic acid methyl ester]
efficacy in modulating cell differentiation [1]: efficacious in modulating cell differentiation | stability [2]: particularly stable

SMILES: CC1(C)CCC(C)(C)c2cc(C#Cc3cccc(C(=O)NO)c3)ccc21 [11a(ii), 3-(5,5,8,8-Tetramethyl-5,6,7,8-tetrahydronaphthalen-2-ylethynyl)benzohydroxamic acid]
cytotoxicity: time to kill the cells ([3]; TERA2.cl.SP12 cells, described as potent cytotoxicity): ≤ 4 days | effect on proliferation of the cultures ([3]; cultures grown in its presence): halted proliferation almost instantly

SMILES: CC1=C(/C=C/C(C)=C/C=C/C(C)=C\C(=O)O)C(C)(C)CCC1 [Compound 13CRA, 13-cis-retinoic acid]
content of the initial retinoic acid in the solution [4]: around 78% | approximate level of the initial retinoic acid [5, 14]: ~85% | approximate level of the initial retinoic acid ([5]; 24 hours): ~73% | degradation in UV light [6]: rapidly degraded

SMILES: CC1(C)CCC(C)(C)c2cc(C#Cc3ccc(C(=O)O)cc3)ccc21 [10a(i), 4-(5,5,8,8-Tetramethyl-5,6,7,8-tetrahydro-naphthalen-2-ylethynyl)benzoic acid]
stability by NMR ([7]; 3 days, dark under air and fluorescent light, DMSO (same conditions as ATRA)): completely stable | epithelial plaques (cytokeratin-8) [8, 15]: very few, if any, epithelial plaques | formation of neurons / neuronal differentiation [8, 15]: consisting primarily of cells undergoing neuronal differentiation | nestin expression [8, 15]: strong expression for nestin | behaviour compared with natural ATRA ([8]; human pluripotent stem cells): essentially identical behaviour to natural ATRA | formation of neurons ([8]; morphology): induced the formation of morphologically identifiable neurons | differentiation into neurons [9]: differentiate into well-defined neurons | expression of differentiation antigens A2B5 and VINIS-53 [10]: marked increases in expression | expression of stem cell markers TRA-1-60 and SSEA-3 [10]: suppression

SMILES: CC1(C)CCC(C)(C)c2cc(C#Cc3cccc(C(=O)O)c3)ccc21 [10a(ii)]
cells immuno-positive for Tuj-1 and NF200 [8, 15]: only a few cells immuno-positive | epithelial plaques (cytokeratin-8) [8, 15]: large numbers of cytokertin-8 positive epithelial plaques | formation of neurons / neuronal differentiation [8, 15]: formation of very few neurons | nestin expression [8, 15]: nestin staining reduced | formation of epithelial cells ([8]; morphology): formation of epithelial cells | formation of neurons ([8]; morphology): Neurons were not identified

content of the initial retinoic acid in the solution [4]: 94% | approximate level of the initial retinoic acid [5, 14]: ~100% | approximate level of the initial retinoic acid ([5]; 24 hours): ~86% | amount remaining [7, 16]: 37% | isomerisation and degradation [7, 16]: 63% | stability by NMR ([7]; 3 days in the dark in air in DMSO): reasonably stable | degradation in UV light [6]: rapidly degraded | level of ATRA ([12]; white light (approx. 1250 lux), 1 hour): 76% | level of ATRA ([12]; white light, 6 hours): 43% | level of ATRA ([12]; white light, 24 hours): 21% | relative stability in laboratory light [13]: marginally more stable than 13CRA
SMILES: CC1=C(/C=C/C(C)=C/C=C/C(C)=C/C(=O)O)C(C)(C)CCC1 [ATRA, All-trans-retinoic acid]
relative concentration of 9, 13-dicis RA in the isomerised ATRA sample [11]: 5% | relative concentration of 9CRA in the isomerised ATRA sample [11]: 10% | relative concentration of 11CRA in the isomerised ATRA sample [11]: 10% | relative concentration of 13CRA in the isomerised ATRA sample [11]: 30% | relative concentration of ATRA in the isomerised ATRA sample [11]: 25% | relative concentration of an unidentified compound in the isomerised ATRA sample [11]: 20% | epithelial plaques (cytokeratin-8) [8, 15]: numerous epithelial plaques | formation of neurons / neuronal differentiation [8, 15]: induced the formation of neurons | differentiation into neurons [9]: primarily form neurons

SMILES: CC(=Cc1ccc(C(=O)O)cc1)c1cc2c(cc1C)C(C)(C)CCC2(C)C [Compound 6bi, 4-[2-(3,5,5,8,8-Pentamethyl-5,6,7,8-tetrahydro-naphthalen-2-yl)propenyl]benzoic acid]
efficacy in modulating cell differentiation [1]: efficacious in modulating cell differentiation | stability [2]: particularly stable
